Data from patent publication US20240335444A1, “MODULATORS OF BCL6 PROTEOLYSIS AND ASSOCIATED METHODS OF USE” (Arvinas Operations, Inc., priority 2023, published 2024).

What was measured:
Format in all cases: in vivo, mice
OCI-Ly10 = assay: Tumor growth of DLBCL cell line derived xenograft model OCI-Ly10; settings: po 3, 10 or 30 mg/kg bid×28 or 30 mg/kg qd×28, dosing dependent
Description: Mice bearing subcutaneous tumors were orally (po) administered vehicle or Compound A at 3, 10, or 30 mg/kg bi-daily for 28 days (bid×28) or 30 mg/kg daily for 28 days (qd×28). Dosing began with tumors at an average of 190 mm^3. […] FIG. 10C depicts tumor lysate BCL6 protein levels 16-hours post-last dose analyzed by western blotting. Individual tumor BCL6 levels are shown in a scatter plot, mean is represented by the bar, determined by densitometry, normalized to GAPDH loading controls, and shown as a percentage of vehicle. Percent BCL6 degradation (%) relative to vehicle is shown above each arm. Statistical analyses were performed using 2-way ANOVA: p<0.05 (*), p<0.0001 (****). Error bars represent standard error of the mean (±SEM).

BCL6 protein [1] = target: T1, BCL6 protein (Homo sapiens, UniProt P41182); assay: Tumor lysate BCL6 protein levels in OCI-Ly1 xenograft tumor tissue (western blotting, densitometry); parameters: from tissue; host or cells: subcutaneous xenograft tumors of OCI-Ly1, OCI-Ly7, SU-DHL-2 or OCI-Ly10 cells in mice
Description: Tumor lysate BCL6 protein levels in OCI-Ly1 cell line xenograft tumor tissue was measured following a treatment time-course with Compound A. A single dose of Compound A was orally administered in a vehicle of 40% hydroxypropyl-b-cyclodextrin in pH 3.0 citrate buffer when tumors reached 200-400 mm^3. Tumors were harvested at the indicated timepoints. Tumor tissue lysates were analyzed using western immunoblotting procedures and densitometry. BCL6 levels are normalized to a GAPDH loading control and presented as a percentage (%) of the average of BCL6 levels in the vehicle control group. Percent BCL6 degradation (%) relative to vehicle is shown above each arm. Cells (1×10^7 cells in 50% matrigel+50% RMPI-1640 (phenol red-free)/100 μl/mouse) were implanted on the right flank subcutaneously.
(§1) Mice bearing subcutaneous tumors were orally (po) administered vehicle or Compound A at 1, 3, or 10 mg/kg bi-daily for 23 days (bid×23). Dosing began with tumors at an average of 170 mm^3. […] FIG. 7C depicts tumor lysate BCL6 protein levels 16-hours post-last dose analyzed by western blotting. Individual tumor BCL6 levels are shown in a scatter plot, mean is represented by the bar, determined by densitometry, normalized to GAPDH loading controls, and shown as a percentage of vehicle. Percent BCL6 degradation (%) relative to vehicle is shown above each arm. Statistical analyses were performed using 2-way ANOVA: p<0.0001 (****). Error bars represent standard error of the mean (±SEM).

BCL6 protein [2] = target: T1, BCL6 protein; assay: Tumor lysate BCL6 protein levels in OCI-Ly7 xenograft (western blotting); parameters: from tissue; host or cells: subcutaneous xenograft tumors of OCI-Ly1, OCI-Ly7, SU-DHL-2 or OCI-Ly10 cells in mice; settings: 16-hours post-last dose (FIG. 8C)
Description: (§2) Mice bearing subcutaneous tumors were orally (po) administered vehicle or Compound A at 1, 3, 10, or 30 mg/kg daily for 13 days (qd×13). Dosing began with tumors at an average of 130 mm^3. […] FIG. 8C depicts tumor lysate BCL6 protein levels 16-hours post-last dose analyzed by western blotting. Individual tumor BCL6 levels are shown in a scatter plot, mean is represented by the bar, determined by densitometry, normalized to GAPDH loading controls, and shown as a percentage of vehicle. Percent BCL6 degradation (%) relative to vehicle is shown above each arm. Statistical analyses were performed using 2-way ANOVA: p<0.0001 (****). Error bars represent standard error of the mean (±SEM).

OCI-Ly1 = assay: Tumor growth of DLBCL cell line derived xenograft model OCI-Ly1; settings: OCI-Ly1 xenograft, dosing dependent
Description: Mice bearing subcutaneous tumors were orally (po) administered vehicle or Compound A at 1, 3, 10, or 30 mg/kg daily for 22 days (qd×22). Dosing began with tumors at an average of 140 mm^3. […] Statistical analyses were performed using 2-way ANOVA: p<0.0001 (****). Error bars represent standard error of the mean (±SEM).
as §1

OCI-Ly7 = assay: Tumor growth of DLBCL cell line derived xenograft model OCI-Ly7; settings: po 1, 3, 10 or 30 mg/kg daily for 13 days (qd×13), dosing dependent
Description: as §2

CNC(=O)COc1cc2cc(Nc3nc(N4CCC(O[C@H]5C[C@H](N6CCC(c7ccc8c(c7F)CN(C7CCC(=O)NC7=O)C8=O)CC6)C5)CC4)ncc3Cl)ccc2n(C(C)C)c1=O (some centres unmarked) [Compound A, 2-({6-[(5-chloro-2-{4-[(1r,3r)-3-{4-[2-(2,6-dioxopiperidin-3-yl)-4-fluoro-1-oxo-2,3-dihydro-1H-isoindol-5-yl]piperidin-1-yl}cyclobutoxy]piperidin-1-yl}pyrimidin-4-yl)amino]-2-oxo-1-(propan-2-yl)-1,2-dihydroquinolin-3-yl}oxy)-N-methylacetamide] was tested, and the Tumor growth (OCI-Ly10) was “inhibits the tumor growth”, the “Tumor lysate BCL6 protein level” value (BCL6 protein [1]; bid×23, 16-hours post-last dose (FIG. 7C)) was “dose-dependent degradation of BCL6 protein” and the “Time BCL6 protein was kept down” value (BCL6 protein [1]; single oral dose (FIG. 5)) was “up to 36 hours”. For the same compound, the “Tumor lysate BCL6 protein level” value (BCL6 protein [1]; single oral dose, time-course (FIG. 5)) was “degraded BCL6 protein rapidly”, the “Tumor lysate BCL6 protein level” value (BCL6 protein [2]) was “dose-dependent degradation of BCL6 protein” and the Tumor growth (OCI-Ly1; po 1, 3, 10 or 30 mg/kg daily for 22 days (qd×22)) was “inhibits the tumor growth”. For the same compound, the Tumor growth (OCI-Ly1; po 1, 3 or 10 mg/kg bi-daily for 23 days (bid×23)) was “inhibits the tumor growth” and the Tumor growth (OCI-Ly7) was “inhibits the tumor growth”.
